Test results from patent publication US20240299486A1, “ADDRESSING INJECTION SITE REACTIONS ASSOCIATED WITH THE ADMINISTRATION OF ELAMIPRETIDE” (STEALTH BIOTHERAPEUTICS INC., priority 2022, published 2024).
Entries after “also recorded” stand apart in the source; their conditions may differ.

Experiments:
[1] = tested on: healthy subjects; experiment: Phase 1 crossover study: clinically assessed injection site reactions; settings: for Clinically assessed Erythema or redness, (%) of Reported Reactions / Clinically assessed Erythema or redness, Number of Reported Reactions / Clinically assessed Induration or swelling, (%) of Reported Reactions / Clinically assessed Induration or swelling, Number of Reported Reactions / Clinically assessed Pain or tenderness, (%) of Reported Reactions / Clinically assessed Pain or tenderness, Number of Reported Reactions / Clinically assessed Pruritis, (%) of Reported Reactions / Clinically assessed Pruritis, Number of Reported Reactions: 60 mg SQ elamipretide with or without the intervention, across all timepoints, all participants, n = 80; for Overall effect of the intervention on ISRs compared to elamipretide alone: clinical and self-assessments, 60 mg SQ elamipretide, vs Arm 1 (no intervention)
Protocol: (§1) • This Phase 1, open-label, 6-arm crossover study included 10 healthy subjects ≥18 and ≤65 years of age. • All subjects received 60 mg of SQ elamipretide to alternating quadrants of the abdomen on each of 6 occasions (FIG. 3), with or without the interventions listed in Table 2. • For each treatment arm, ISR clinical and self-assessments were performed pre-elamipretide administration and at 0.5, 1, 2, 4, 6, 12, 24, and 48 hours after each elamipretide dose. • Blood samples for plasma concentrations of elamipretide and its metabolites were also collected pre-dose and at 0.25, 0.5, 1, 2, 4, and 6 hours post-elamipretide dose. • Primary endpoints consisted of comparisons of the grading from the clinical assessments and the self-assessments of each ISR parameter following administration of elamipretide with each separate intervention versus that of elamipretide alone. • Secondary endpoints consisted of comparison of various pharmacokinetic (PK) parameters and adverse events following administration of elamipretide with each separate intervention versus that of elamipretide alone.
(§2) After the screening period (up to 28 days) in this phase 1, open-label, 4-week, 6-part, crossover study, all eligible subjects received 60 mg (0.75 mL) of SC elamipretide to alternating quadrants of the abdomen on each of 6 occasions, with or without potential ISR interventions. The first treatment arm (Arm 1) commenced on Day 1 with administration of elamipretide only, followed by the remaining treatment arms (Arms 2-6) with the following potential mitigations: mometasone furoate, 0.1% ointment, applied once under a hydrocolloid occlusive dressing (DuoDERM Extra Thin) 7 days prior to elamipretide administration (Arm 2); ice application at the elamipretide injection site 5 minutes pre- and post-drug administration (Arm 3); tacrolimus 0.1% ointment applied 15 minutes pre-drug dosing (Arm 4); doxepin 5% cream applied 15 minutes pre-elamipretide administration (Arm 5); and diphenhydramine 50 mg orally taken 2 hours prior to administration (Arm 6). For each treatment arm, blood samples for plasma concentrations of elamipretide and its metabolites were collected pre-dose and at 0.25, 0.5, 1, 2, 4, and 6 hours post-elamipretide dose. Vital signs were recorded pre-dose and at 0.5 and 6 hours post-elamipretide administration. ISR clinical and self-assessments were performed pre-elamipretide administration and at 0.5, 1, 2, 4, 6, 12, 24, and 48 hours after each elamipretide dose. Injection sites were photographed at 0.5, 1, 2, 4, and 12 hours post-elamipretide dose.
(§3) The primary endpoints of this study were comprised of the following efficacy measures: clinical assessments and subject self-assessments. Specifically, the primary endpoints consisted of comparisons of the grading of each ISR parameter following administration of elamipretide with each separate intervention versus the grading of each ISR parameter following administration of elamipretide alone. For clinical assessments, the clinical staff used a standard procedure adapted from the Division of Aids Table for Grading the Severity of Adult and Pediatric Adverse Events to score pain, erythema, induration, and pruritus using a 4-point scale based on severity (0=None, 1=Mild, 2=Moderate, 3=Severe, 4=Potentially Life Threatening). The self-assessments were based on a questionnaire to determine how bothered the patient was following each injection of elamipretide and included the following parameters: pain, burning sensation, cold sensation, itching, redness, swelling, and bruising.
(§4) All statistical analyses were performed using SAS GRID Linux/SAS Studio (Version 9.4, or higher). PK parameters for elamipretide and its metabolites, M1 and M2, were summarized using descriptive statistics.

[2] = tested on: healthy subjects; experiment: Phase 1 crossover study: self-assessed injection site reactions; format: in vivo, human; settings: 60 mg SQ elamipretide with or without the intervention, across all timepoints, all participants, n = 80
Protocol: as §1, §2, §3, §4

[3] = tested on: healthy subjects; experiment: Phase 1 crossover study: safety (TEAEs, vital signs, ECG); format: in vivo, human; settings: Arm 6, 50 mg orally 2 hours prior to 60 mg SQ elamipretide, 10 subjects
Protocol: The secondary endpoints of this study consisted of PK and safety assessments. After measuring absorption and distribution PK of elamipretide and its metabolites (M1 and M2), comparisons of each Tmax, Cmax, and AUC0-6 following administration of elamipretide with each separate intervention versus Tmax, Cmax, and AUC0-6 following administration of elamipretide alone were performed. Safety assessments consisted of comparison of treatment emergent adverse events (TEAEs) reported following administration of elamipretide with each separate intervention versus TEAEs reported following administration of elamipretide alone. Safety measurements included TEAEs, clinical laboratory tests (e.g., serum chemistry and hematology), 12-lead ECGs, physical exams, and vital signs.

[4] = molecular target: T1, MRGPRX2 receptor (Homo sapiens, UniProt Q96LB1); experiment: Fluo-4 calcium assay in MRGPRX2 expressing Chem-1 cells; format: cell-based
T1 construct: host or cells: Chem-1 cells (G418-selected)
T1 sequence (Q96LB1 1-330): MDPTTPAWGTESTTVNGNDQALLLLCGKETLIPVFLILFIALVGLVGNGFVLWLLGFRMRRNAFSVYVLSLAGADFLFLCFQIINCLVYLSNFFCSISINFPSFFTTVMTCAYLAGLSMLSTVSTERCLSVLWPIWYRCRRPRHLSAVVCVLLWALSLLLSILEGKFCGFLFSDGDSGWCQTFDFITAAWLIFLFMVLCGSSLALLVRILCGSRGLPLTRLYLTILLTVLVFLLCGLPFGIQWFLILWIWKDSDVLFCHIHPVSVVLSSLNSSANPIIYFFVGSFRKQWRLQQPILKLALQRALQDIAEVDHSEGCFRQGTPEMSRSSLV

[5] = clinical assessment, vs elamipretide alone

Row | SMILES | Clinically assessed Erythema or redness, (%) of Reported Reactions [1] | Clinically assessed Erythema or redness, Number of Reported Reactions [1] | Clinically assessed Induration or swelling, (%) of Reported Reactions [1] | Clinically assessed Induration or swelling, Number of Reported Reactions [1] | Clinically assessed Pain or tenderness, (%) of Reported Reactions [1] | Clinically assessed Pain or tenderness, Number of Reported Reactions [1] | Clinically assessed Pruritis, (%) of Reported Reactions [1] | Clinically assessed Pruritis, Number of Reported Reactions [1] | Overall effect of the intervention on ISRs compared to elamipretide alone [1] | Self-assessed Bruising, (%) of Reported Reactions [2] | Self-assessed Bruising, Number of Reported Reactions [2] | Self-assessed Burning sensation, (%) of Reported Reactions [2] | Self-assessed Burning sensation, Number of Reported Reactions [2] | Self-assessed Cold Sensation, Number of Reported Reactions [2] | Self-assessed Itching, (%) of Reported Reactions [2] | Self-assessed Itching, Number of Reported Reactions [2] | Self-assessed Pain, (%) of Reported Reactions [2] | Self-assessed Pain, Number of Reported Reactions [2] | Self-assessed Redness, (%) of Reported Reactions [2] | Self-assessed Redness, Number of Reported Reactions [2] | further results
1 | C[C@@H]1C[C@H]2[C@@H]3CCC4=CC(=O)C=C[C@]4(C)[C@@]3(Cl)[C@@H](O)C[C@]2(C)[C@@]1(OC(=O)c1ccco1)C(=O)CCl [Mometasone furoate] | (37.5) % | 30 | (10.0) % | 8 | (8.8) % | 7 | (2.5) % | 2 | most reduced; also recorded: favorably mitigate | (1.3) % | 1 | (8.8) % | 7 | 0.0 | (6.3) % | 5 | (8.8) % | 7 | (41.3) % | 33 | Overall effect of the intervention on ISRs compared to elamipretide alone ([1]; listed as mometasone furoate ointment): Improvement; incidence of induration at 0.5 hours post-elamipretide dose [1, 5]: significantly reduced incidence; incidence of induration at 1 hour post-elamipretide dose [1, 5]: Trends to significance in reduction; pruritus at 0.5 hours post-dose [1, 5]: Trends to significance in reduction; Self-assessed Swelling, (%) of Reported Reactions [2]: (11.3) %; Self-assessed Swelling, Number of Reported Reactions [2]: 9
2 | CN(C)CCOC(c1ccccc1)c1ccccc1 [Diphenhydramine] | (26.3) % | 21 | (6.3) % | 5 | (2.5) % | 2 | (10.0) % | 8 | most reduced; also recorded: potential in reducing induration; also recorded: Improvement | (1.3) % | 1 | (1.3) % | 1 | 0.0 | (11.3) % | 9 | (2.5) % | 2 | (25.0) % | 20 | mild somnolence, incidence [3]: 50%; mild somnolence, number of subjects [3]: 5 subjects; incidence of induration at 0.5 hours post-elamipretide dose [1, 5]: trend to significance in reduction; incidence of induration at 1 hour post-elamipretide dose [1, 5]: significantly decreased incidence; Self-assessed Swelling, (%) of Reported Reactions [2]: (6.3) %; Self-assessed Swelling, Number of Reported Reactions [2]: 5
3 | C=CC[C@@H]1/C=C(\C)C[C@H](C)C[C@H](OC)[C@H]2O[C@@](O)(C(=O)C(=O)N3CCCC[C@H]3C(=O)O[C@H](/C(C)=C/[C@@H]3CC[C@@H](O)[C@H](OC)C3)[C@H](C)[C@@H](O)CC1=O)[C@H](C)C[C@@H]2OC [Tacrolimus] | (31.3) % | 25 | (22.5) % | 18 | (3.8) % | 3 | (15.0) % | 12 | little impact | (10.0) % | 8 | (1.3) % | 1 | 0.0 | (15.0) % | 12 | (3.8) % | 3 | (25.0) % | 20 | Overall effect of the intervention on ISRs compared to elamipretide alone ([1]; listed as tacrolimus): most reduced; Overall effect of the intervention on ISRs compared to elamipretide alone ([1]; listed as tacrolimus ointment): Improvement; Self-assessed Swelling, (%) of Reported Reactions [2]: (18.8) %; Self-assessed Swelling, Number of Reported Reactions [2]: 15
4 | O=c1c(O)c(-c2ccc(O)c(O)c2)oc2cc(O)cc(O)c12 [quercetin, 3,3′,4′,5,7-pentahydroxyflavone] | – | – | – | – | – | – | – | – | – | – | – | – | – | – | – | – | – | – | – | – | inhibition of the activation of the MRGPRX2 receptor caused by elamipretide ([4]; 100 μM of elamipretide, various concentrations of quercetin): in a dose-dependent manner, inhibit the activation; also recorded: inhibits activation of MRGPRX2
5 | CN(C)CCC=C1c2ccccc2COc2ccccc21 [Doxepin] | (27.5) % | 22 | (21.3) % | 17 | (12.5) % | 10 | (12.5) % | 10 | little impact | (0.0) % | 0 | (7.5) % | 6 | 0.0 | (12.5) % | 10 | (8.8) % | 7 | (35.0) % | 28 | Self-assessed Swelling, (%) of Reported Reactions [2]: (21.3) %; Self-assessed Swelling, Number of Reported Reactions [2]: 17
6 | CCNC(=O)[C@@H]1CCCN1C(=O)[C@H](CCCNC(=N)N)NC(=O)[C@H](CC(C)C)NC(=O)[C@@H](CC(C)C)NC(=O)[C@H](Cc1ccc(O)cc1)NC(=O)[C@H](CO)NC(=O)[C@H](Cc1c[nH]c2ccccc12)NC(=O)[C@H](Cc1c[nH]cn1)NC(=O)[C@@H]1CCC(=O)N1 [leuprolide] | – | – | – | – | – | – | – | – | – | – | – | – | – | – | – | – | – | – | – | – | activation of the MRGPRX2 expressing cells (calcium mobilization) ([4]; Chem-1 cells, Fluo-4): dose dependent activation
